Where two headings read alike, the source gives them in different places.
Legend:
[1] = target: HIV-1 frameshift-inducing RNA stem-loop (SEQ ID NO:1); assay: Fluorescence titration of Cy-3 labeled HIV-1 RNA stem-loop; assay type: binding
Protocol: The binding of dicarba analogs to the HIV-1 frameshift-inducing RNA was measured using fluorescence spectroscopy. Fluorescence titrations were performed on a Varian Cary eclipse fluorescence spectrophotometer using 1 cm path-length quartz fluorescence cell. The solution of Cy-3 labeled HIV-1 RNA stem-loop in PBS buffer (400 μL, 400 nM) was taken in the cell and excited with a wavelength of 550 nm. A PMT voltage of 715 V was used for collecting the fluorescence data and the emission spectrum was collected from 555 to 600 nm wavelength range. The ligand solution in PBS buffer was added to the target RNA in the cell in either 2 or 4 μL increments and was allowed to equilibrate for 10 minutes before recording the emission spectrum. Statistical analysis of the data was carried out using Origin 7 (OriginLab corporation). Binding constants were determined by fitting the data to one-site binding model equation.
A 5′-Cy3 labeled upper stem-loop of HIV-1 RNA (SEQ ID NO:1) was titrated with increasing amount of the dicarba analogs in a phosphate buffer (PBS, pH 7.4) using the same protocol to that described in Example 3 above. The fluorescence intensity of the labeled RNA stem-loop decreased as a function of the ligand concentration. […] Normally, one would expect a greater difference between the affinities of the two isomers.
To further evaluate the binding selectivity of dicarba analogs to the frameshift-inducing stem-loop, fluorescence titrations were repeated in the presence of twenty-fold excess concentration of yeast tRNA. […] In an interesting result it was discovered that the monomeric compound (5) also bound to the HIV-1 RNA stem-loop with similar affinity as that of the other analogs, but the binding affinity was diminished in the presence of tRNA. […] Quinoline is a known intercalator of nucleotide bases and has the capability to interact with RNA non-specifically. But it is the peptidic part of the molecule in ligands 5-5 E and 5-5 Z that imparts specificity to the interaction between the ligand and the RNA stem-loop. The peptidic part on monomer 5 is insufficient to impart specificity to the interaction as evident from the results.

[2] = assay type: physicochemical
Protocol: The oxidation of 1-1 (FIG. 13, Scheme 2) to the disulfoxide was achieved by reacting 1-1 with H2O2 (1.1 eq.) and MoClO2 (0.05 eq) in 1:1 acetonitrile:water for 15 minutes, followed by purification by RP-HPLC (Jeyakumar et al., “Selective Oxidation of Sulfides to Sulfoxides and Sulfones at Room Temperature Using H2O2 and Mo(VI) Salt as Catalyst,” Tettrahedron Letters 47:4573-76 (2006), which is hereby incorporated by reference in its entirety).

[3] = target: (CUG)109 RNA (SEQ ID NO:8)-MBNL1 protein interaction; assay: Enzyme Fragmentation Complementation (EFC) assay of (CUG)109-MBNL1 binding inhibition; assay type: biochemical
Protocol: Small molecule-mediated inhibition of (CUG)109-MBNL1 binding was determined using an Enzyme Fragmentation Complementation (EFC) assay (Eglen et al., “β-Galactosidase Enzyme Fragment Complementation as A Novel Technology for High Throughput Screening,” Comb. Chem. High Throughput Screening 6:381-387 (2003), which is hereby incorporated by reference in its entirety). Briefly, this was performed by first immobilizing (CUG)109 RNA (SEQ ID NO:8) to a 96 well plate. Next, the immobilized RNA was incubated with recombinant MBNL1 fused to the PL enzyme donor peptide (PL-MBNL1, where “PL” is the commercial “ProLabel” enzyme donor peptide) (DiscoveRx PathHunter ProLabel Detection kit) in the presence of varying concentrations of small molecule inhibitor. The Enzyme Acceptor (EA-β-galactosidase) complement was then added, and the activity of the resulting plate—(CUG)109 bound (PL-MBNL1)-(EA-β-galactosidase) activity was monitored via a chemiluminsecent substrate. Only the EA-β-Gal bound to the PL-MBNL1 is capable of performing the luminescent reaction and, as such, any luminescence correlates to the amount of MBNL1 bound to the (CUG)109 immobilized on the plate. Wells lacking (CUG)109 RNA served as a background measure of non-specific luminescence and were subtracted from each experiment to yield a 0% bound value. Wells containing no small molecule inhibitor added served as 100% bound. […]

[4] = target: variant (CUG) stem RNA (SEQ ID NO:9); assay: Fluorescence titration (FT), SEQ ID NO:9; assay type: binding
Protocol: (§1) To test specificity and to confirm the determined binding affinities, filter binding assays and fluorescence titrations were performed with SEQ ID NOS: 7-11 (Table 5), and the HIV-1 frameshift stimulating RNA hairpin used in preceding Examples (SEQ ID NO:1, Table 5). Fluorescence titrations were performed using a Varian Cary Eclipse spectrophotometer. 2 μl of 50 or 500 μM small molecule were titrated into 400 μl of FAM labeled RNA sequences an allowed to equilibrate for at least 10 minutes, or until no change in fluorescence spectra was observed. Changes in fluorescence emission at 518 nm (excitation at 490 nm) were measured. Raw data were corrected for dilution dependant changes, and Em518 was plotted against small molecule concentration and fit to the one site binding equation y=(bmaz*x)/(KD+x).) Competition experiments utilizing target RNA (SEQ ID NO:7) and a 20-fold molar excess of total yeast tRNA were performed to measure non-specific RNA binding (Luedtke et al., “RNA-Ligand Interactions: Affinity and Specificity of Aminoglycoside Dimers and Acridine Conjugates to the HIV-1 Rev Response Element,” Biochemistry 42:11391-11403 (2003), which is hereby incorporated by reference in its entirety). Compound 1-1, the HIV-1 RNA ligand, served as a negative control.

[5] = target: variant (CUG) stem RNA (SEQ ID NO:9); assay: Filter binding assay (FBA), SEQ ID NO:9
Protocol: (§2) A filter binding assay system was utilized to provide a rapid initial assessment of binding affinity. All binding studies were performed in PBS pH 7.2+1 mM MgCl2 at 22° C. Various concentrations of small molecules were incubated with 10 nM FAM-labeled RNA in a total volume of 50 μl for 20 minutes. A slot blot apparatus was then assembled with a wet nitrocellulose filter, on top of a wet nylon filter, on top of filter paper. 40 μl of each binding mixture was then loaded into an individual well of the apparatus and allowed to penetrate the filters for 10 minutes. The peptidic disulfides selected from the DCL efficiently bind to the nitrocellulose filter. In contrast, the FAM-labeled RNA strands penetrate the nitrocellulose filter and are bound by the nylon filter. As such, RNA bound by the peptidic library members remains bound on the nitrocellulose filter, and unbound RNA passes to the nylon filter.
(§3) Densitometric analysis of the ratio of labeled RNA on the nitrocellulose to nylon filters allows quantification of binding (FIG. 15A). All binding isotherms were fit to the logistic binding model (Equation 1 above). The repetitive nature of the target sequences may in some cases result in binding stoichiometries that are more complex than a simple 1:1 interaction.
as §1

[6] = target: (CUG) repeat RNA SEQ ID NO:7; assay: Fluorescence titration (FT), SEQ ID NO:7; assay type: binding
Protocol: as §1

[7] = target: (CUG)109 RNA (SEQ ID NO:8); assay: Filter binding assay (FBA), SEQ ID NO:8
Protocol: as §2, §3

[8] = target: HIV-1 frameshift stimulating RNA hairpin (SEQ ID NO:1); assay: Filter binding assay (FBA), SEQ ID NO:1
Protocol: as §2, §3, §1

[9] = target: (CUG)/(CAG) complimentary RNA (SEQ ID NO:10); assay: Filter binding assay (FBA), SEQ ID NO:10
Protocol: as §2, §3, §1

[10] = target: (CUG) loop RNA (SEQ ID NO:11); assay: Filter binding assay (FBA), SEQ ID NO:11
Protocol: as §2, §3, §1

[11] = target: (CUG) loop RNA (SEQ ID NO:11); assay: Fluorescence titration (FT), SEQ ID NO:11; assay type: binding; set-up: key: NC = Not Calculable.; NS = Not Saturatable
Protocol: as §1

[12] = target: (CUG)/(CAG) complimentary RNA (SEQ ID NO:10); assay: Fluorescence titration (FT), SEQ ID NO:10; assay type: binding; set-up: key to KD: NC = Not Calculable.; NS = Not Saturatable
Protocol: as §1

[13] = target: (CUG) repeat RNA SEQ ID NO:7; assay: Filter binding assay (FBA), SEQ ID NO:7; conditions: FBA, read-out: KD
Protocol: as §2, §3, §1

[14] = 8 μM tRNA (twenty-fold excess), stem-loop 4 × 10^−7 M, PBS buffer, 25° C., read-out: Binding Affinity (Kd) in the presence of excess yeast tRNA
[15] = fluorescence titration, stem-loop 4 × 10^−7 M, PBS buffer, 25° C., read-out: Binding Affinity (Kd)

SMILES	Kd [1, 15]	Kd [4]	Kd [5]	Kd ([6]; SEQ ID NO: 7)	Kd ([6]; SEQ ID NO: 7 + 20 x tRNA)	Kd [7]	Kd [8]	Kd [9]	Kd [10]	KD [11]	KD [12]	Kd ([13]; SEQ ID NO: 7 + 20 x tRNA)	Kd ([13]; SEQ ID NO: 7)	further results
CCc1nc2ccccc2cc1C(=O)N[C@@H](C[S+]([O-])[S+]([O-])C[C@H](NC(=O)c1cc2ccccc2nc1CC)C(=O)N1CCC[C@H]1C(=O)N[C@@H](Cc1ccccc1)C(=O)NCCCN)C(=O)N1CCC[C@H]1C(=O)N[C@@H](Cc1ccccc1)C(=O)NCCCN (stereo partly drawn) [1-1 disulfoxide]	–	–	–	–	–	–	–	–	–	–	–	–	–	Kd ([1]; freshly prepared compound, read-out: KD, fluorescence titration with the HIV1 frameshift inducing stemloop): 410 nM; degradation after synthesis [2]: degraded within a few hours of synthesis
CCc1nc2ccccc2cc1C(=O)N[C@@H](C/C=C/C[C@H](NC(=O)c1cc2ccccc2nc1CC)C(=O)N1CCC[C@H]1C(=O)N[C@@H](Cc1ccccc1)C(=O)NCCCN)C(=O)N1CCC[C@H]1C(=O)N[C@@H](Cc1ccccc1)C(=O)NCCCN [dimer 5-5 E]	410 ± 20 nM	–	–	–	–	–	–	–	–	–	–	–	–	Kd [1, 14]: 450 ± 90 nM
CCc1nc2ccccc2cc1C(=O)N[C@@H](C/C=C\C[C@H](NC(=O)c1cc2ccccc2nc1CC)C(=O)N1CCC[C@H]1C(=O)N[C@@H](Cc1ccccc1)C(=O)NCCCN)C(=O)N1CCC[C@H]1C(=O)N[C@@H](Cc1ccccc1)C(=O)NCCCN [dimer 5-5 Z]	240 ± 50 nM	–	–	–	–	–	–	–	–	–	–	–	–	Kd [1, 14]: 290 nM
NCCCCC(NC(=O)C(CSSCC(NC(=O)C(CC(N)=O)NC(=O)c1ccc2c(c1)OCO2)C(=O)NC(CCCCN)C(=O)NCCCN)NC(=O)C(CC(N)=O)NC(=O)c1ccc2c(c1)OCO2)C(=O)NCCCN (stereo not drawn) [dimer 6-6]	–	–	–	–	–	–	–	–	–	–	–	–	–	Ki, inhibition of the (CUG)n MBNL1 interaction [3]: do not show any inhibitory effect
CCc1nc2ccccc2cc1C(=O)N[C@@H](CC(N)=O)C(=O)N[C@@H](CSSC[C@H](NC(=O)[C@@H]1CCCN1C(=O)c1cc2ccccc2nc1CC)C(=O)N[C@@H](CCCCN)C(=O)NCCCN)C(=O)N[C@@H](CCCCN)C(=O)NCCCN [dimer 7-9]	–	1600 nM	6.4 ± 1 µM	2100 nM	2900 nM	2100 nM	22 ± 2 µM	19.5 ± 1 µM	4.6 ± 0.1 µM	NC	NC	10 ± 0.7 µM	4.5 ± 0.6 µM	–
NCCCC[C@H](NC(=O)[C@H](CSSC[C@H](NC(=O)[C@@H]1CCCN1C(=O)c1ccc2c(c1)OCO2)C(=O)N[C@@H](CCCCN)C(=O)NCCCN)NC(=O)[C@@H]1CCCN1C(=O)c1ccc2c(c1)OCO2)C(=O)NCCCN [dimer 8-8]	–	2100 nM	9.3 ± 0.4 µM	1400 nM	2400 nM	2500 nM	41 ± 9 µM	21 ± 1.4 µM	7.5 ± 0.9 µM	NC	NC	14 ± 4 µM	5.4 ± 0.6 µM	–
CCc1nc2ccccc2cc1C(=O)N1CCC[C@H]1C(=O)N[C@@H](CSSC[C@H](NC(=O)[C@@H]1CCCN1C(=O)c1ccc2c(c1)OCO2)C(=O)N[C@@H](CCCCN)C(=O)NCCCN)C(=O)N[C@@H](CCCCN)C(=O)NCCCN [dimer 8-9]	–	2600 nM	4.7 ± 0.1 µM	2100 nM	4200 nM	1900 nM	16 ± 4 µM	21 ± 1.8 µM	6 ± 0.1 µM	NC	NC	9.6 ± 0.7 µM	4.1 ± 0.2 µM	–
CCc1nc2ccccc2cc1C(=O)N1CCC[C@H]1C(=O)N[C@@H](CSSC[C@H](NC(=O)[C@@H]1CCCN1C(=O)c1cc2ccccc2nc1CC)C(=O)N[C@@H](CCCCN)C(=O)NCCCN)C(=O)N[C@@H](CCCCN)C(=O)NCCCN [dimer 9-9]	–	1700 nM	7.1 ± 1.1 µM	2200 nM	3400 nM	2100 nM	24 ± 5 µM	> 40 µM	8.5 ± 0.1 µM	NS	–	18 ± 2.1 µM	6.7 ± 0.2 µM	Kd [12]: 17 µM
C=CC[C@H](NC(=O)c1cc2ccccc2nc1CC)C(=O)N1CCC[C@H]1C(=O)N[C@@H](Cc1ccccc1)C(=O)NCCCN [monomer 5]	370 ± 20 nM	–	–	–	–	–	–	–	–	–	–	–	–	Binding Affinity (Kd) in the presence of excess yeast tRNA ([1]; 8 μM tRNA (twenty-fold excess), stem-loop 4 × 10^−7 M, PBS buffer, 25° C.): No binding

Reference: US9212205B2, “Nucleic acid binding compounds and methods of use” (University of Rochester, priority 2007, dated 2015)
